Patent US6028102A, “Anticonvulsant drugs and pharmaceutical compositions thereof” (priority 1998, dated 2000)
Where two headings read alike, the source gives them in different places. Peptide text beside a SMILES is read from it. * marks the point of attachment. Cbz = O=C(OCc1ccccc1)*

Experiments:
[1] = Screening of anticonvulsant activity; type: in vivo, mice; conditions: for anticonvulsant activity: ip administration (300 mg) to mice; for anticonvulsant activity in words: overall finding of the study
Description: Screening of Anticonvulsant Activity
Compounds I-XI were screened in carworth farm #1 mice (ip--in a volume of 0.01 mL/g of body weight) and sprague-Dawley rats (po--in a volume of 0.004 mL/g of body weight) for their anticonvulsant activity and neurotoxicity by the NIH epilepsy Branch [Porter et al, 1984]. The screening procedure involved the following:
1) the maximal electroshock (MES) test, which measures seizure spread; 2) the subcutaneous pentylenetetrazol test (sc Met test) which measures seizure threshold; and 3) the rotored ataxia test which assesses neurotoxicity.
Applicants therefore decided to derivatize glycinamide and the above dipeptides by synthesizing their N-acetyl and N'-benzyl derivatives (compounds IV-VIII). […] Therefore, this compound was further analyzed quantitatively and its ED50 data and protective indices in comparison to phthaloyl glycinamide and valproyl glycinamide--TV 1901 [17] are presented in Table 2. As a consequence of their anticonvulsant activity, the pharmacokinetics of compounds VII and IX were investigated following iv administration (400 mg) to six dogs, and the mean plasma levels of compounds VII and IX are presented in FIGS. 1 and 2, respectively.

[2] = in vivo, cited from earlier work
[3] = ip, mice; data from Salach et al (1994), Hadad and Bialer (1995); cited from earlier work
[4] = mice and rats / rodents; cited from earlier work
[5] = ip, mice, cited from earlier work; for sc Met, ED50: data from Salach et al (1994), Hadad and Bialer (1995)
[6] = dogs, iv, mean, Table 3, cited from earlier work; for CL / MRT / Vss / Vβ / t1/2: data from Salach et al 1994, Hadad and Bialer 1995
[7] = mice; Kohn et al 1988, 1990, 1991; Conley and Kohn, 1987; cited from earlier work
[8] = mice; Freed, 1985; cited from earlier work
[9] = electroshock, metrazole and homocysteine; Freed et al, 1979; cited from earlier work
[10] = rats; Lambert et al. [1994]; cited from earlier work
[11] = Pharmacokinetic analysis following iv administration to dogs; type: in vivo; conditions: dog, in vivo
Description: The experiments were carried out on six male dogs (mongrels), ranging in weight between 18 and 22 kg. In a randomized cross over design, each dog was injected intravenously (in 1.5 mL of DMSO) with a dose of 400 mg of N-acetyl,N'-benzylglycinamide (VII), 404 mg (on dose equivalent to 400 mg of compound VII) of Z-glycinamide (IX) and 406 mg of Z-glycine (VIII). Urine was collected systematically for 12 hours after dosing, by means of an indwelling catheter.
Venous blood samples (6 mL) were collected via an indwelling catheter (from the cephalic vein) at specified intervals following injection (0, 5, 10, 20, 30, 45 minutes and 1, 1.5, 2, 2.5, 3, 4, 5, 6, 7, 8, 10 and 12 hours respectively). The plasma was then immediately separated by centrifugation at 3000 g for 15 minutes and stored at -20° C. Before each assay, the plasma was allowed to reach room temperature, vortexed, centrifuged and the residual clot removed.
Urine samples were collected via a urine catheter at specified intervals following injection (0, 1, 2, 3, 4, 5, 6, 7, 8, 9, 10 and 12 hours respectively), the samples volume were measured and the urine samples were stored at -20° C. Plasma and urine levels of compounds VII, VIII and IX were then assayed by a HPLC assay described herein below.
HPLC Assay for Monitoring N-acetyl,N'-benzylglycinamide (VII) and N-benzyloxycarbonylglycinamide (IX) in Dog Plasma and Urine
Plasma samples are allowed to reach room temperature, vortexed and centrifuged. The plasma was then assayed as follows:
To 0.5 mL of plasma, 10 μg of an internal standard (N-benzyl-oxycarbonylglycinamide (IX)) and 4 mL of tert-butylmethylether were added. The mixture was vigorously vortexed for 30 seconds, centrifuged for 10 minutes at 3000 g, the organic phase was separated and evaporated to dryness (using a vortex evaporator). To the residue, 80 μl of methanol were added, the mixture was vortexed and 30 μl were injected into the HPLC (Schimadzu SCL-10A with a UV-visible detector model SPD-10A).
Urine samples are allowed to reach room temperature, vortexed and centrifuged. The urine was then assayed as follows:
To 0.25 mL of urine, 10 μg of internal standard (N-benzyl-oxycarbonylglycinamide (IX)), 100 μl of hydrochloric acid solution (1 N) and 4 mL of tert-butylmethylether were added. The mixture was vigorously vortexed for 30 seconds and centrifuged for 10 minutes at 3000 g, the organic phase was separated and transferred to another test tube containing 0.5 mL of sodium hydroxide solution (1N), the mixture was vigorously vortexed for 30 seconds, centrifuged for 10 minutes at 3000 g, the organic phase was separated and evaporated to dryness (using a vortex evaporator). To the residue, 80 μl of methanol were added, the mixture was vortexed and 30 μl were injected into the HPLC.
HPLC conditions: HPLC column; Hypersil ODS (C-18) 5μ, 4.6×150 mm; Wavelength: 258 nm; Mobile phase: 60% water, 40% methanol and 0.01% trifluoroacetic acid.
The same assay was used for monitoring N-benzyloxycarbonyl-glycinamide (IX) in dog plasma and dog urine using N-acetyl,N'-benzylglycinamide as an internal standard.
HPLC Assay for Monitoring Z-glycine (VIII) in Dog Plasma and Urine
To 0.5 mL of plasma, 10 μg of internal standard (Z-GABA), 100 μl of hydrochloric acid solution (1N) and 5 mL of tert-butylmethylether were added. The mixture was vigorously vortexed for 30 seconds, centrifuged for 10 minutes at 3000 g, the organic phase was separated and evaporated to dryness (using a vortex evaporator). To the residue, 100 μl of mobile phase were added, the mixture was vortexed and 30 μl were injected to the HPLC.
Urine samples was allowed to reach room temperature, vortexed and centrifuged. The urine was then assayed as follows:
To 0.1 mL of urine, 30 μg of internal standard (Z-GABA) and 5 mL of tert-butylmethylether were added. The mixture was vigorously vortexed for 30 seconds, centrifuged for 10 minutes at 3000 g, the organic phase was separated off. […]

[12] = ip, mice; data from Salach et al (1994), Hadad and Bialer (1995); cited from earlier work; remark: listed apart in the source

## NCC(=O)NCC(=O)O [I, Glycylglycine] (H-Gly-Gly-OH)
[1]
  anticonvulsant activity: did not show anticonvulsant activity

## NCC(=O)O [glycine]
[2]
  effect upon oral or systemic administration: neither GABA nor glycine are effective upon oral or systemic administration
  blood-brain barrier passage: does not readily cross the blood-brain barrier

## CCCC(CCC)C(=O)NCC(N)=O [valproyl glycinamide, N-valproyl glycinamide]
[3]
  MES, ED50: 152 mg/kg
  PI, MES (Protective index, ratio of TD50 to ED50): 2.4
[4]
  anticonvulsant activity in words: good anticonvulsant activity in both mice and rats
[5]; data from Hadad and Bialer (1995)
  PI, sc Met (Protective index, ratio of TD50 to ED50): 2.9
[5]
  sc Met, ED50: 127 mg/kg
[6]
  CL: 3 ± 0.8 L/h
  MRT: 4.6 ± 0.7 h
  Vss: 12 ± 3 L
  Vβ: 11 ± 3 L
  t1/2: 2.7 ± 0.5 h

## CC(=O)N[C@@H](C(=O)NCc1ccccc1)c1ccc[nH]1 (racemic) [(R,S)-2-acetamido-N-benzyl-2-pyrolacetamide]
[7]
  anticonvulsant activity in MES test: more potent than the analogous alanine and phenylglycine derivatives

## CN(C)CC(=O)O [dimethylglycine]
[8]
  antagonism of strychnine-induced seizures: antagonized

## CC(C)C(C(=O)NCC(N)=O)C(C)C [diisopropyl acety glycinamide]
[4]
  anticonvulsant activity in words: good anticonvulsant activity in rodents

## CC1(C)C(C(=O)NCC(N)=O)C1(C)C [tetramethylcyclopropylcarbonyl glycinamide]
[4]
  anticonvulsant activity in words: good anticonvulsant activity in rodents

## CCC=C(CCC)C(=O)NCC(N)=O [N-2-enevalproyl glycinamide]
[4]
  anticonvulsant activity in words: good anticonvulsant activity in rodents

## CCC(C)C(CC)C(=O)NCC(N)=O (centres unmarked) [valnoctyl glycinamide]
[4]
  anticonvulsant activity in words: good anticonvulsant activity in rodents

## C[N+](C)(C)CC(=O)O [betaine, N,N,N-trimethyl glycine]
[9]
  block of induction of convulsions: block the induction of convulsions
[8]
  antagonism of strychnine-induced seizures: antagonized

## NCC(=O)NCC(N)=O [II, Glycylglycinamide]
[1]
  anticonvulsant activity: did not show anticonvulsant activity

## NC(=O)CNC(=O)CNC(=O)OCc1ccccc1 [XI, N-Benzyloxycarbonyl Glycylglycinamide] (Cbz-Gly-Gly-NH2)
[1]
  anticonvulsant activity in words: inactive as anticonvulsant

## CC(=O)NCC(=O)NCC(N)=O [compound VI, N-Acetylglycylglycinamide]
[1]
  anticonvulsant activity in words: inactive as anticonvulsant

## NCCCC(=O)NCC(N)=O [III, Gaboylglycinamide]
[1]
  anticonvulsant activity: did not show anticonvulsant activity

## CNCC(=O)O [sarcosine, N-methylglycine]
[8]
  antagonism of strychnine-induced seizures: antagonized

## O=C(O)CNC(=O)OCc1ccccc1 [compound VIII, N-benzyloxycarbonylglycine]
[10]
  anticonvulsant activity relative to glycine: far more active than glycine
[11]
  fm (fraction metabolized of Z-glycinamide to Z-glycine): 80.1 ± 13.6%
  half-life: 0.6 ± 0.14 h
  pharmacokinetics and elimination in words: its t1/2 was the shortest
[11]; 720 min
  Mu/D (fraction of Z-glycine excreted in the urine as a metabolite of Z-glycinamide): 20 ± 19.8%
[11]; CL
  clearance: 90 mL/min
[11]; MRT
  MRT: 0.8 ± 0.1 h
[11]; VSS / volume of distribution
  Vd: 0.2 L/kg
[11]; Vss
  Vd: 4.9 ± 0.6 L
[11]; Vβ
  Vd: 4.5 ± 0.8 L
[1]
  anticonvulsant activity in words: lack of activity
[1]; listed as Z-glycine
  anticonvulsant activity in words: inactive in this study

## O=C(O)CNC(=O)CNC(=O)OCc1ccccc1 [X, N-benzyloxycarbonyl glycylglycine] (Cbz-Gly-Gly-OH)
[1]
  anticonvulsant activity in words: inactive as anticonvulsant

## CC(=O)NC(C(=O)NCc1ccccc1)c1ccccc1 (racemic) [N-acetyl,N'-benzyl DL-phenyl glycinamide]
[7]
  anticonvulsant activity in MES test: marked anticonvulsant activity

## CC(=O)NC(C)C(=O)NCc1ccccc1 (racemic) [N-acetyl,N'-benzyl DL-alaninamide]
[7]
  anticonvulsant activity in MES test: marked anticonvulsant activity

## NC(=O)CN1C(=O)c2ccccc2C1=O [phthaloyl glycinamide, phthaloylglycinamide]
[3]
  MES, ED50: 94 mg/kg
  PI, MES (Protective index, ratio of TD50 to ED50): > 64
[5]
  sc Met, ED50: > 400 mg/kg
[12]
  Neurotoxicity, TD50: > 600 mg/kg
[6]
  CL: 9 L/h
  MRT: 4.6 ± 0.9 h
  Vss: 46 ± 13 L
  Vβ: 48 ± 13 L
  t1/2: 3.4 ± 0.7 h
[6]; data from Salach et al 1994, 720 min
  fe (fraction excreted unchanged in urine): 7.0 ± 0.7%

## NCCCC(=O)O [GABA]
[2]
  effect upon oral or systemic administration: neither GABA nor glycine are effective upon oral or systemic administration
  blood-brain barrier passage: inability to cross the blood brain barrier
